We go through 56 compounds from patent publication US8193369B2, “Benzimidazole cannabinoid agonists” (Janssen Pharmaceutica NV, priority 2007, dated 2012).

The target of the assay is T1, human CB2 (hCB2) receptor (Homo sapiens, UniProt P34972).
T1 construct: expressed in transfected cells; host or cells: CHO-K1
As to the kind of experiment: Inhibition of forskolin-activated cAMP production upon activation of human CB2 receptor (HTRF). The class given is cell-based. The settings on record: CHO-K1 cells stably transfected with hCB2; 15 μM forskolin; pEC50=-log(EC50); relative to WIN55212-2. As to the method:
D. Pharmacological Examples D.1 Inhibition of cAMP in Response to Activation of the Human CB2 Receptors
Functional activity of the test compounds was assessed by measuring their potency to inhibit forskolin-activated cAMP production upon activation of human CB2 (hCB2) receptor through homogenous time resolved fluorescence (HTRF) assays.
CHO-K1 cells stably transfected with hCB2 were grown up to 80-90% confluence in T175 Falcon flasks in DMEM/NUT MIX F-12 culture medium complemented with 2% Solution A (5.10^6 IU/l penicillin G, 5 g/l streptomycin sulphate, 5.5 g/l pyruvate, 14.6 g/l L-glutamine, 1M NaOH) and 10% foetal calf serum. Before the experiments, medium was removed, cells were washed with PBS/EDTA (140 mM NaCl, 1 mM Na2-EDTA, 8 mM Na2HPO4.2H2O, 8.5 mM KH2PO4, 2.7 mM KCl, 21 mM glucose), resuspended in stimulation buffer (HBSS 1×, IBMX 1 mM, Hepes 5 mM, MgCl2 10 mM, BSA 0.1%, pH 7.4). Cells were diluted to a concentration of 10^6 cells/ml for hCB2 experiments. Assays were performed using the cAMP Dynamic HTRF kit (CIS bio international, France) according to the recommendations of the manufacturer.
For CB2, each well of a 384 flat bottom black polystyrene assay plate (Costar) was filled with 10 μl stimulation buffer containing 15 μM forskolin and either test compound (in 3% DMSO), 3% DMSO or 10 μM Win55212-2 (in 3% DMSO). Then, 20 μl of the diluted hCB2-CHO-K1 cells was added (20,000 cells/well). After 30 minutes incubation in dark at room temperature, 10 μl cAMP-XL665 and 10 μl anti-cAMP cryptate (both at a final dilution of 1/100) was added to the cells.
After equilibration of the reaction mixtures for 1 to 24 hours in dark at room temperature, fluorescence was measured at 665 nm and 620 nm using a Discovery microplate fluorescence counter (Perkin Elmer), and the signal ratio of 665 nm/620 nm was calculated. The signal ratios of the test compounds were expressed relative to the signal ratios of the DMSO control (maximal signal ratio, no inhibition of cAMP) and WIN55212-2 for hCB2, respectively (minimal signal ratio, maximal inhibition of cAMP). From the dose response curves generated for each test compound, the dose at which 50% of the maximal inhibition of cAMP level is observed (EC50, expressed in the Table as pEC50=−log (EC50) values) and the level of inhibition reached with 10 μM of the test compound compared to WIN55212-2 (for hCB2) was calculated.

T1 sequence (P34972 whole entry): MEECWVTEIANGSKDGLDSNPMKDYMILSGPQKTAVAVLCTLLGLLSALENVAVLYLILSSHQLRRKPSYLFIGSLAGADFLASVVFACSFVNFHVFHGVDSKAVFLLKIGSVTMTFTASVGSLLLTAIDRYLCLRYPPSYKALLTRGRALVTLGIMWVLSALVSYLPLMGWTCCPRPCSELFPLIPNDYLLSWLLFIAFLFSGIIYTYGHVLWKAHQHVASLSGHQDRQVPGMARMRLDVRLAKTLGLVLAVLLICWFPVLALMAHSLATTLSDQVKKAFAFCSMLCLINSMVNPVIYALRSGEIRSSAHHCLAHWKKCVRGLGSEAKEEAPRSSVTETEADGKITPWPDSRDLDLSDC

A word on the EC50: it is the concentration at which the effect is half-maximal. Read a low EC50 as greater potency. Turning to `CC(=O)N1CCC(Cn2c(C(C)(C)C)nc3cc(S(=O)(=O)c4ccc(C(F)(F)F)cc4Cl)ccc32)CC1` [compound 107], the 50% effective concentration (EC50) is about 7.41 nM.

Consider `CC(=O)N1CCC(Cn2c(C(C)(C)C)nc3cc(S(=O)(=O)CCCC#N)ccc32)CC1` [compound 10], for which the half-maximal effective concentration (EC50) was 21.9 nM.

`CC(=O)N1CCC(Cn2c(C(C)(C)C)nc3cc(S(=O)(=O)c4cccc(N(C)C)c4)ccc32)CC1` [compound 98] had a concentration for a half-maximal effect (EC50) of 4.57 nM.

For the compound `CC(=O)N1CCC(Cn2c(C(C)(C)C)nc3cc(S(=O)(=O)c4c(C)cccc4C)ccc32)CC1` [compound 115], the EC50 was about 8.32 nM.

Compound `CC(=O)N1CCC(Cn2c(C(C)(C)C)nc3cc(S(=O)(=O)c4c(F)cc(F)cc4F)ccc32)CC1` [compound 114] had an EC50 of about 4.17 nM.

On to `CC(=O)N1CCC(Cn2c(C(C)(C)C)nc3cc(S(=O)(=O)Cc4ccccc4)ccc32)CC1` [Co. No. 73], for which the EC50 was 2.34 nM.

Compound `CC(=O)N1CCC(Cn2c(C(C)(C)C)nc3cc(Sc4cccs4)ccc32)CC1` [compound 66] had an EC50 of 2.24 nM.

As to `CC(=O)N1CCC(Cn2c(C(C)(C)C)nc3cc(Sc4ccncc4)ccc32)CC1` [compound 33], the EC50 is 4.47 nM.

As for `CC(=O)N1CCC(Cn2c(C(C)(C)C)nc3cc(Sc4ccccc4C#N)ccc32)CC1` [compound 93], the EC50 was about 0.24 nM.

With `COc1ccc(CS(=O)(=O)c2ccc3c(c2)nc(C(C)(C)C)n3CC2CCN(C(C)=O)CC2)cc1` [compound 12], the EC50 was 158 nM.

`CC(=O)N1CCC(Cn2c(C(C)(C)C)nc3cc(S(=O)(=O)C(C)C#N)ccc32)CC1` (centres unmarked) [compound 39] showed an EC50 of 7.08 nM.

In the case of `CC(=O)N1CCC(Cn2c(C(C)(C)C)nc3cc(Sc4c(Cl)cccc4Cl)ccc32)CC1` [compound 57], the EC50 is 1.58 nM.

`CC(=O)N1CCC(Cn2c(C(C)(C)C)nc3cc(S(=O)(=O)c4ccc(N)c(Cl)c4)ccc32)CC1` [compound 110] had a half-maximal effective concentration (EC50) of about 10 nM.

Take `CC(=O)N1CCC(Cn2c(C(C)(C)C)nc3cc(S(=O)(=O)c4cccc(OC(C)C)c4)ccc32)CC1` [compound 100]: a half-maximal effect (EC50) was put at 2.34 nM.

`COc1cccc(OC)c1S(=O)(=O)c1ccc2c(c1)nc(C(C)(C)C)n2CC1CCN(C(C)=O)CC1` [compound 102] had an EC50 of about 3.47 nM.

With `CC(=O)N1CCC(Cn2c(C(C)(C)C)nc3cc(S(=O)(=O)c4cccnc4)ccc32)CC1` [compound 62], the EC50 was 5.25 nM.

Compound `CC(=O)N1CCC(Cn2c(C(C)(C)C)nc3cc(Sc4cccnc4)ccc32)CC1` [compound 54] gave an EC50 of 2.29 nM.

For the compound `COc1ccccc1S(=O)(=O)c1ccc2c(c1)nc(C(C)(C)C)n2CC1CCN(C(C)=O)CC1` [compound 109], the EC50 was about 8.71 nM.

With `CC(=O)N1CCC(Cn2c(C(C)(C)C)nc3cc(S(=O)(=O)C(C)C)ccc32)CC1` [compound 64], the EC50 is 12.9 nM.

For the compound `CC(=O)N1CCC(Cn2c(C(C)(C)C)nc3cc(S(=O)(=O)c4ccccc4C#N)ccc32)CC1` [compound 94], the EC50 is about 3.31 nM.

On to `CC(=O)N1CCC(Cn2c(C(C)(C)C)nc3cc(Sc4cccc(OCCCC#N)c4)ccc32)CC1` [compound 95], for which the EC50 was about 2.69 nM.

`COc1cccc(OC)c1Sc1ccc2c(c1)nc(C(C)(C)C)n2CC1CCN(C(C)=O)CC1` [compound 101] had an EC50 of about 0.513 nM.

As for `CC(C)(C)c1nc2cc(SCCCO)ccc2n1CC1CCN(C=O)CC1` [compound 21], the midpoint of the response, the EC50, lay at 5.37 nM.

Compound `CC(=O)N1CCC(Cn2c(C(C)(C)C)nc3cc(SCc4ccccc4)ccc32)CC1` [compound 72] showed a half-maximal effective concentration (EC50) of 12.9 nM.

As for `CC(=O)N1CCC(Cn2c(C(C)(C)C)nc3cc(S(=O)(=O)C(C)(C)c4ccccc4)ccc32)CC1` [compound 55], a half-maximal response (EC50) required 93.3 nM.

`CC(=O)N1CCC(Cn2c(C(C)(C)C)nc3cc(SCCC#N)ccc32)CC1` [compound 15]: the EC50 was 10 nM.

For `CC(=O)N1CCC(Cn2c(C(C)(C)C)nc3cc(Sc4cccc(Cl)c4)ccc32)CC1` [compound 89], the EC50 is about 0.11 nM.

As for `CC(=O)N1CCC(Cn2c(C(C)(C)C)nc3cc(Sc4ccccn4)ccc32)CC1` [compound 50], the EC50 is 7.76 nM.

On to `CC(=O)N1CCC(Cn2c(C(C)(C)C)nc3cc(SCCc4ccc(F)cc4)ccc32)CC1` [compound 52], for which the EC50 is 3.98 nM.

Compound `CC(=O)N1CCC(Cn2c(C(C)(C)C)nc3cc(S(=O)(=O)c4cccc(OCCCC#N)c4)ccc32)CC1` [compound 96] had an EC50 of 3.55 nM.

With `COCCS(=O)(=O)c1ccc2c(c1)nc(C(C)(C)C)n2CC1CCN(C(C)=O)CC1` [compound 20], the “CB2 pEC50” value is listed as 7.59.

For the compound `CC(=O)N1CCC(Cn2c(C(C)(C)C)nc3cc(Sc4ccc(F)cc4)ccc32)CC1` [compound 58], the EC50 was 8.51 nM.

Compound `CC(=O)N1CCC(Cn2c(C(C)(C)C)nc3cc(S(=O)(=O)c4ccc[n+]([O-])c4)ccc32)CC1` [compound 63] gave an EC50 of 15.5 nM.

With `COCCCOc1cccc(S(=O)(=O)c2ccc3c(c2)nc(C(C)(C)C)n3CC2CCN(C(C)=O)CC2)c1` [compound 86], it took 5.37 nM to reach a half-maximal effect (EC50).

Compound `CCS(=O)(=O)c1ccc2c(c1)nc(C(C)(C)C)n2CC1CCN(C(C)=O)CC1` [compound 1] showed an EC50 of 8.51 nM.

`CC(=O)N1CCC(Cn2c(C(C)(C)C)nc3cc(S(=O)(=O)c4cccc(N5CCOCC5)c4)ccc32)CC1` [compound 116] had a 50% effective concentration (EC50) of about 44.7 nM.

Turning to `CC(=O)N1CCC(Cn2c(C(C)(C)C)nc3cc(S(=O)(=O)Cc4ccc(N(C)C(C)=O)cc4)ccc32)CC1` [compound 80], the EC50 was about 46.8 nM.

`CC(=O)Nc1ccc(CS(=O)(=O)c2ccc3c(c2)nc(C(C)(C)C)n3CC2CCN(C(C)=O)CC2)cc1` [compound 79] gave an EC50 of 5.89 nM.

Compound `CCC(CC)S(=O)(=O)c1ccc2c(c1)nc(C(C)(C)C)n2CC1CCN(C(C)=O)CC1` [compound 61] had a concentration giving a half-maximal response (EC50) of 2.51 nM.

In the case of `CC(=O)N1CCC(Cn2c(C(C)(C)C)nc3cc(S(=O)(=O)c4c(F)cccc4F)ccc32)CC1` [compound 111], the EC50 is about 16.6 nM.

Regarding `CC(=O)N1CCC(Cn2c(C(C)(C)C)nc3cc(S(=O)(=O)CCCO)ccc32)CC1` [compound 19], the “CB2 pEC50” value is given as 6.84.

With `CC(C)(C)c1nc2cc(SCC3CC3)ccc2n1CC1CCN(C=O)CC1` [compound 37], the EC50 was 1.32 nM.

`CC(=O)N1CCC(Cn2c(C(C)(C)C)nc3cc(SCCCO)ccc32)CC1` [compound 13] had a concentration giving a half-maximal response (EC50) of 8.71 nM.

As for `CC(=O)N1CCC(Cn2c(C(C)(C)C)nc3cc(Sc4ccccc4Cl)ccc32)CC1` [compound 70], the EC50 is 0.0871 nM.

Turning to `CC(=O)N1CCC(Cn2c(C(C)(C)C)nc3cc(SC4CCCC4)ccc32)CC1` [compound 32], a half-maximal effect (EC50) was put at 1.29 nM.

The compound `CC(=O)N1CCC(Cn2c(C(C)(C)C)nc3cc(Sc4ccc(C(F)(F)F)cc4)ccc32)CC1` [compound 87] had an EC50 of about 10 nM.

In turn, `CC(=O)N1CCC(Cn2c(C(C)(C)C)nc3cc(S(=O)(=O)CCCC(F)(F)F)ccc32)CC1` [compound 3] had an EC50 of 15.5 nM.

As to `CC(=O)N1CCC(Cn2c(C(C)(C)C)nc3cc(S(=O)(=O)c4ccc(OC(F)(F)F)cc4)ccc32)CC1` [compound 104], the concentration giving a half-maximal response (EC50) is about 23.4 nM.

Turning to `CCCC(CCC)Sc1ccc2c(c1)nc(C(C)(C)C)n2CC1CCN(C(C)=O)CC1` [compound 65], the EC50 is 1.74 nM.

Regarding `CC(=O)N1CCC(Cn2c(C(C)(C)C)nc3cc(S(=O)(=O)c4ccoc4)ccc32)CC1` [compound 103], the EC50 was about 3.8 nM.

For `COc1ccc(CSc2ccc3c(c2)nc(C(C)(C)C)n3CC2CCN(C(C)=O)CC2)cc1` [compound 11], the EC50 is 20.4 nM.

Turning to `CCC(CC)Sc1ccc2c(c1)nc(C(C)(C)C)n2CC1CCN(C(C)=O)CC1` [compound 51], the concentration giving a half-maximal response (EC50) is 0.794 nM.

As for `CC(=O)N1CCC(Cn2c(C(C)(C)C)nc3cc(SCC4CCC4)ccc32)CC1` [compound 41], the response was half-maximal at 1.17 nM (EC50).

`CC(=O)N1CCC(Cn2c(C(C)(C)C)nc3cc(SCc4ccc(F)cc4)ccc32)CC1` [compound 17] gave a half-maximal effective concentration (EC50) of 0.794 nM.

The compound `CC(=O)N1CCC(Cn2c(C(C)(C)C)nc3cc(S(=O)(=O)c4ccc(C#N)cc4)ccc32)CC1` [compound 23] had an EC50 of 3.72 nM.

`CC(=O)N1CCC(Cn2c(C(C)(C)C)nc3cc(Sc4cccc(C(F)(F)F)c4)ccc32)CC1` [compound 91] had an EC50 of about 0.832 nM.
